Measurements from US7872004B2, “6-(heterocyclyl-substituted benzyl)-4-oxoquinoline compound and use thereof as HIV integrase inhibitor” (Japan Tobacco Inc., priority 2006, dated 2011).

Target: T1, HIV integrase (Human immunodeficiency virus type 1 group M subtype B, UniProt P12497, F1332H)
T1 construct: HIV integrase full length gene; made in house; host or cells: Escherichia coli BL21(DE3)
Assay: Determination of enzyme (HIV integrase) inhibitory activity
Assay type: biochemical, HIV (Human Immunodeficiency Virus (type 1))
Settings: recombinant integrase protein (F185H), strand transfer plate assay, absorbance at 450 nm
Excerpt: The following explains evaluation methods of the HIV integrase inhibitory activity of the compound of the present invention.
(i) Construction of Recombinant Integrase Gene Expression System
HIV integrase full length gene (J. Virol., 67, 425-437 (1993)) in which phenylalanine at codon 185 was substituted by histidine, was inserted between the restriction enzyme NdeI and XhoI sites of plasmid pET21a(+) (Novagen), whereby an integrase expression vector pET21a-IN-F185H was constructed.
(ii) Production and Purification of Integrase Protein
Escherichia coli recombinant BL21(DE3) transformed with plasmid pET21a-IN-F185H obtained in (i) was shake cultured at 30° C. in a liquid medium containing ampicillin. When the culture reached the logarithmic growth phase, isopropyl-β-D-thiogalactopyranoside was added to promote expression of integrase gene. The culture was continued for 3 hr to promote accumulation of the integrase protein. The recombinant E. coli was collected in pellets by centrifugal separation and preserved at −80° C.
The E. coli was suspended in Lysis buffer ([…] HEPES (pH 7.5), 5 mM DTT, 10 mM CHAPS, 10% glycerol) containing 1M sodium chloride and subjected to repeat pressurization and depressurization for rupture, and centrifugal separation at 4° C., 40,000×g, 60 min to recover a water-soluble fraction (supernatant). This was diluted 10-fold with Lysis buffer free of sodium chloride, mixed with SP-Sepharose (GE healthcare Bioscience) and stirred at 4° C. for 60 min to allow adsorption of integrase protein to the resin. The resin was washed with Lysis buffer containing 100 mM sodium chloride and the integrase protein was eluted with Lysis buffer containing 1M sodium chloride.
The eluted integrase protein solution was subjected to a Superdex 75 (GE healthcare Bioscience) column for gel filtration. The protein was eluted with Lysis buffer containing 1M sodium chloride.
The obtained fractions of the integrase protein were collected and preserved at −80° C.
(iii) Preparation of DNA Solution
The following DNA synthesized by Greiner or FASMAC was dissolved in TE buffer (10 mM Tris-hydrochloric acid (pH 8.0), 1 mM EDTA) and mixed with donor DNA, target DNA, and each complementary strand (+ and − strands) to 1 μM. The mixture was heated at 95° C. for 5 min, 80° C. for 10 min, 70° C. for 10 min, 60° C. for 10 min, 50° C. for 10 min and 40° C. for 10 min and kept at 25° C. to give a double stranded DNA, which was used for the test.
(iv) Determination of Enzyme (HIV Integrase) Inhibitory Activity
The donor DNA was diluted with TE buffer to 10 nM (or 5 nM), of which 50 μl was added to each well of streptavidin-coated microtiter plate (Roche) and allowed to adsorb at 37° C. for 60 min. The plate was washed with phosphate buffer (Dulbecco's PBS, Sanko Junyaku Co., Ltd.) containing 0.1% Tween 20 and phosphate buffer. Then, an enzyme reaction mixture (70 μl), a test substance (10 μl) diluted with the enzyme reaction mixture and 100 μg/ml (or 64 μg/ml (2 μM)) integrase protein (10 μl) were added to each well and reacted at 37° C. for 60 min.
Composition of the enzyme reaction mixture: 30 mM MOPS (3-morpholinopropanesulfonic acid), 5 mM magnesium chloride, 3 mM DTT (dithiothreitol), 0.1 mg/ml BSA (bovine serum albumin), 5% glycerol, 10% DMSO (dimethyl sulfoxide), 0.01% Tween 20.
Then, 50 nM (or 25 nM) target DNA (10 μl) was added, reacted at 37° C. for 10 min and washed with phosphate buffer containing 0.1% Tween 20 to stop the reaction.
Then, 100 mU/ml peroxidase labeled anti-digoxigenin antibody solution (Roche, 100 μl) was added, and the mixture was reacted at 37° C. for 60 min, followed by washing with phosphate buffer containing 0.1% Tween 20.
A peroxidase color solution (Bio Rad, 100 μl) was added and allowed to react at room temperature for 4 min (or 3 min). The color reaction was stopped by adding IN sulfuric acid (100 μl). The absorbance at 450 nm was measured. […]

`CC(C)(C)[C@@H](CO)n1cc(C(=O)O)c(=O)c2cc(Cc3cc(N4CCCC4=O)cc(Cl)c3F)ccc21` [Example 51, 6-[3-chloro-2-fluoro-5-(2-oxopyrrolidin-1-yl)benzyl]-1-((S)-1-hydroxymethyl-2,2-dimethylpropyl)-4-oxo-1,4-dihydroquinoline-3-carboxylic acid] and `CCc1cc2c(cc1Cc1cc(N3CCOCC3)cc(Cl)c1F)c(=O)c(C(=O)O)cn2[C@H](CO)C(C)(C)C` [Example 18, 6-[3-chloro-2-fluoro-5-(morpholin-4-yl)benzyl]-7-ethyl-1-((S)-1-hydroxymethyl-2,2-dimethylpropyl)-4-oxo-1,4-dihydroquinoline-3-carboxylic acid] cannot be ordered by IC50: < 10 nM for the first, < 10 nM for the second.

First: CCc1cc2c(cc1Cc1cc(N3CCOCC3)cc(Cl)c1F)c(=O)c(C(=O)O)cn2[C@H](CO)C(C)(C)OC [Example 43, 6-[3-chloro-2-fluoro-5-(morpholin-4-yl)benzyl]-7-ethyl-1-((R)-1-hydroxymethyl-2-methoxy-2-methylpropyl)-4-oxo-1,4-dihydroquinoline-3-carboxylic acid]
Second: CCc1cc2c(cc1Cc1cc(N3CCOCC3)cc(Cl)c1F)c(=O)c(C(=O)O)cn2[C@H](CO)[C@H](C)OC [Example 35, 6-[3-chloro-2-fluoro-5-(morpholin-4-yl)benzyl]-7-ethyl-1-((1R,2S)-1-hydroxymethyl-2-methoxypropyl)-4-oxo-1,4-dihydroquinoline-3-carboxylic acid]
The IC50 of the first is lower: < 10 nM for the first, 10 to 100 nM for the second.

Compared with `CCc1cc2c(cc1Cc1cc(N3CCOCC3)cc(Cl)c1F)c(=O)c(C(=O)O)cn2[C@H](CO)COC` [Example 20, 6-[3-chloro-2-fluoro-5-(morpholin-4-yl)benzyl]-7-ethyl-1-[(R)-2-hydroxy-1-(methoxymethyl)ethyl]-4-oxo-1,4-dihydroquinoline-3-carboxylic acid], `CCc1cc2c(cc1Cc1cc(N3CCOCC3)cc(Cl)c1F)c(=O)c(C(=O)O)cn2[C@H](CO)CCOC` [Example 44, 6-[3-chloro-2-fluoro-5-(morpholin-4-yl)benzyl]-7-ethyl-1-((S)-1-hydroxymethyl-3-methoxypropyl)-4-oxo-1,4-dihydroquinoline-3-carboxylic acid] is higher in IC50: < 10 nM for the first, 10 to 100 nM for the second. The first is the more potent here.

`COCC[C@@H](CO)n1cc(C(=O)O)c(=O)c2cc(Cc3cc(N4CCOCC4)cc(Cl)c3F)c(OC)cc21` [Example 29, 6-[3-chloro-2-fluoro-5-(morpholin-4-yl)benzyl]-1-((S)-1-hydroxymethyl-3-methoxypropyl)-7-methoxy-4-oxo-1,4-dihydroquinoline-3-carboxylic acid] and `COc1cc2c(cc1Cc1cc(N3CCOCC3)cc(Cl)c1F)c(=O)c(C(=O)O)cn2[C@H](CO)[C@H](C)OC` [Example 28, 6-[3-chloro-2-fluoro-5-(morpholin-4-yl)benzyl]-1-((1R,2S)-1-hydroxymethyl-2-methoxypropyl)-7-methoxy-4-oxo-1,4-dihydroquinoline-3-carboxylic acid] cannot be ordered by IC50: < 10 nM for the first, < 10 nM for the second.

`COc1cc2c(cc1Cc1cc(N3CCC(F)(F)C3)cc(Cl)c1F)c(=O)c(C(=O)O)cn2[C@H](CO)C(C)C` [Example 12, 6-[3-chloro-5-(3,3-difluoropyrrolidin-1-yl)-2-fluorobenzyl]-1-((S)-1-hydroxymethyl-2-methylpropyl)-7-methoxy-4-oxo-1,4-dihydroquinoline-3-carboxylic acid] and `COc1cc2c(cc1Cc1cc(N3CC[C@H](O)C3)cc(Cl)c1F)c(=O)c(C(=O)O)cn2[C@H](CO)C(C)C` [Example 9, 6-[3-chloro-2-fluoro-5-((S)-3-hydroxypyrrolidin-1-yl)benzyl]-1-((S)-1-hydroxymethyl-2-methylpropyl)-7-methoxy-4-oxo-1,4-dihydroquinoline-3-carboxylic acid] cannot be ordered by IC50: < 10 nM for the first, < 10 nM for the second.

`COc1cc2c(cc1Cc1cc(N3CCC(O)CC3)cc(Cl)c1F)c(=O)c(C(=O)O)cn2[C@H](CO)C(C)C` [Example 32, 6-[3-chloro-2-fluoro-5-(4-hydroxypiperidin-1-yl)benzyl]-1-((S)-1-hydroxymethyl-2-methylpropyl)-7-methoxy-4-oxo-1,4-dihydroquinoline-3-carboxylic acid] and `COc1cc2c(cc1Cc1cc(N3CCCC3)cc(Cl)c1F)c(=O)c(C(=O)O)cn2[C@H](CO)C(C)C` [Example 3, 6-[3-chloro-2-fluoro-5-(pyrrolidin-1-yl)benzyl]-1-((S)-1-hydroxymethyl-2-methylpropyl)-7-methoxy-4-oxo-1,4-dihydroquinoline-3-carboxylic acid] cannot be ordered by IC50: < 10 nM for the first, < 10 nM for the second.

`CCc1cc2c(cc1Cc1cc(N3CCCC3=O)c(F)c(Cl)c1F)c(=O)c(C(=O)O)cn2[C@H](CO)C(C)C` [Example 26, 6-[3-chloro-2,4-difluoro-5-(2-oxopyrrolidin-1-yl)benzyl]-7-ethyl-1-((S)-1-hydroxymethyl-2-methylpropyl)-4-oxo-1,4-dihydroquinoline-3-carboxylic acid] and `COc1cc2c(cc1Cc1cc(N3CCCC3=O)c(F)c(Cl)c1F)c(=O)c(C(=O)O)cn2[C@H](CO)C(C)C` [Example 25, 6-[3-chloro-2,4-difluoro-5-(2-oxopyrrolidin-1-yl)benzyl]-1-((S)-1-hydroxymethyl-2-methylpropyl)-7-methoxy-4-oxo-1,4-dihydroquinoline-3-carboxylic acid] cannot be ordered by IC50: < 10 nM for the first, < 10 nM for the second.

`COc1cc2c(cc1Cc1cc(N3CCOCC3)cc(Cl)c1F)c(=O)c(C(=O)O)cn2[C@H](CO)[C@@H](C)OC` [Example 15, 6-[3-chloro-2-fluoro-5-(morpholin-4-yl)benzyl]-1-((1R,2R)-1-hydroxymethyl-2-methoxypropyl)-7-methoxy-4-oxo-1,4-dihydroquinoline-3-carboxylic acid] and `COc1cc2c(cc1Cc1cc(N3CCOCC3)cc(Cl)c1F)c(=O)c(C(=O)O)cn2[C@H](CO)C(C)(C)C` [Example 17, 6-[3-chloro-2-fluoro-5-(morpholin-4-yl)benzyl]-1-((S)-1-hydroxymethyl-2,2-dimethylpropyl)-7-methoxy-4-oxo-1,4-dihydroquinoline-3-carboxylic acid] cannot be ordered by IC50: < 10 nM for the first, < 10 nM for the second.

`COc1cc2c(cc1Cc1cc(N3CCC(=O)N3C)cc(Cl)c1F)c(=O)c(C(=O)O)cn2[C@H](CO)C(C)C` [Example 10, 6-[3-chloro-2-fluoro-5-(2-methyl-3-oxopyrazolidin-1-yl)benzyl]-1-((S)-1-hydroxymethyl-2-methylpropyl)-7-methoxy-4-oxo-1,4-dihydroquinoline-3-carboxylic acid] and `COc1cc2c(cc1Cc1cc(N3CCOCC3)c(F)c(Cl)c1F)c(=O)c(C(=O)O)cn2[C@H](CO)C(C)C` [Example 16, 6-[3-chloro-2,4-difluoro-5-(morpholin-4-yl)benzyl]-1-((S)-1-hydroxymethyl-2-methylpropyl)-7-methoxy-4-oxo-1,4-dihydroquinoline-3-carboxylic acid] cannot be ordered by IC50: < 10 nM for the first, < 10 nM for the second.

`COc1cc2c(cc1Cc1cc(N3CCOCC3)c(F)c(Cl)c1F)c(=O)c(C(=O)O)cn2[C@H](CO)C(C)(C)C` [Example 49, 6-[3-chloro-2,4-difluoro-5-(morpholin-4-yl)benzyl]-1-((S)-1-hydroxymethyl-2,2-dimethylpropyl)-7-methoxy-4-oxo-1,4-dihydroquinoline-3-carboxylic acid] was tested, and the IC50 was < 10 nM.
